In patent US20090163451A1, “METHODS FOR TREATING VISCERAL PAIN” (priority 2007, published 2009):
Entries after “also recorded” stand apart in the source; their conditions may differ.

How the values were obtained:
[1] = tested on: acetic acid-induced abdominal writhing in mice; conditions: mice (Ghelardini et al.; Jain et al.); cited from earlier work
[2] = tested on: evoked release of calcitonin gene-related peptide from the rat isolated spinal cord; conditions: rat isolated spinal cord (Arvieu et al.); cited from earlier work
[3] = tested on: rats with experimental colonic hypersensitivity (butyrate), referred lumbar hypersensitivity; test: colonic hypersensitivity model (intracolonic sodium butyrate): referred lumbar hypersensitivity, von Frey mechanical threshold; assay type: in vivo, Sprague Dawley rats; conditions: for behavior of rats previously injected with intracolonic vehicle: control rats
Procedure: (§1) Adult male Sprague Dawley rats (Harlan, Indianapolis, Ind.), weighing 150-200 g, were maintained in a climate-controlled room with ad lib food and water on a 12 hour/12 hour light/dark cycle (lights on at 07:00 hours). All procedures followed the policies of the International Association for the Study of Pain and the NIH guidelines for the handling and use of laboratory animals. Studies were approved by the University of Arizona IACUC.
(§2) Dibutyltin dichloride (DBTC) was obtained from Sigma-Aldrich (Milwaukee, Wis.) and dissolved in 100% ethanol to a concentration of 8 mg/kg (Sparmann et al., Gastroenterology. 112:1664-1672 (1997))). Sumatriptan succinate was obtained from Toronto Research Chemicals (ON, Canada) and dissolved in saline to 1, 3, and 10 μg for RVM microinjections and 100, 200, and 300 μg/kg for systemic injections (Kayser et al., Br J Pharmacol. 137:1287-1297 (2002)). The 5HT1B antagonist isamoltane and the 5HT1D antagonist BRL15722 were obtained from Tocris (Elllisville, Mo.). Isamoltane was dissolved in saline to a concentration of 3 μg for RVM microinjection and to a concentration of 4 mg/kg (Ottani et al., Eur J Pharmacol. 497:181-186 (2004)) for system application. BRL15722 was dissolved in 10% DMSO to a concentration of 3 μg for RVM microinjection and to a concentration of 0.3 mg/kg (Ottani et al., Eur J Pharmacol. 497:181-186 (2004)) for systemic application.
(§3) For the experiments involving microinjection of drugs into the RVM, rats underwent surgeries to implant RVM cannulae. After five days of recovery, rats received either intravenous injection of DBTC to induce pancreatitis, or intracolonic injection of sodium butyrate to induce colonic hypersensitivity. Animals were monitored for development of visceral hypersensitivity on the subsequent days. On day six after either induction of pancreatitis or colonic hypersensitivity, animals underwent baseline behavioral measurements. Sumatriptan was microinjected into the RVM at different doses (separate groups of rats for each dose) and animals were monitored behaviorally for two h after sumatriptan application in the RVM. For experiments investigating the effects of serotonin antagonists, the drugs were microinjected concurrently with injection of sumatriptan and animals were monitored for the subsequent two h. Separate groups of animals were microinjected with the antagonists alone to control for possible effects of the drugs by themselves.
(§4) For the experiments involving systemic drug administration, rats received intravenous injection of DBTC to induce pancreatitis or intracolonic injection of sodium butyrate to induce colonic hypersensitivity. On day six after either induction of pancreatitis of colonic hypersensitivity, animals underwent baseline behavioral measurements. Sumatriptan was injected intraperitoneally at different doses (separate groups of rats for each dose) and the animals were monitored behaviorally every 20 min for two h after injection. For experiments investigating the effects of serotonin antagonists, the drugs were injected intraperitoneally immediately following the injection of sumatriptan (separate groups for each respective antagonist). Separate groups of animals were injected with the antagonists alone. Additionally, separate groups of animals were injected with sumatriptan systemically and microinjected with the antagonists in the RVM to determine if the RVM is a site of action for systemically applied sumatriptan. The microinjection of antagonists into the RVM was done immediately following the systemic injection of sumatriptan. All animals were tested for behavioral signs of hypersensitivity every 20 min for two h after the end of the injections.
Colonic hypersensitivity was induced by enemas of a sodium butyrate solution ([…]) twice daily for 3 days (Bourdu et al., Gastroenterology. 128:1996-2008 (2005)). […]

[4] = tested on: rats with experimental colonic hypersensitivity (butyrate), referred lumbar hypersensitivity; test: as above; assay type: in vivo, Sprague Dawley rats; conditions: 10 μg IV, up to 120 minutes postinjection, data not shown
[5] = tested on: thermal hypersensitivity induced by intraplantar injection of carrageenan; conditions: injected systemically at similar doses used in the present study (Bingham et al.); cited from earlier work
[6] = tested on: rats with experimental pancreatitis (DBTC), referred abdominal hypersensitivity; test: experimental pancreatitis model (IV DBTC): referred abdominal hypersensitivity, withdrawals to von Frey filament; assay type: in vivo, Sprague Dawley rats
Procedure: as §1, §2
as §3, with “Sumatriptan was microinjected into the RVM at different doses (separate groups of rats for each dose) and animals were monitored behaviorally for two h after sumatriptan application in the RVM.” left out
as §4, with “Sumatriptan was injected intraperitoneally at different doses (separate groups of rats for each dose) and the animals were monitored behaviorally every 20 min for two h after injection. For experiments investigating the effects of serotonin antagonists, the drugs were injected intraperitoneally immediately following the injection of sumatriptan (separate groups for each respective antagonist).” left out
Pancreatitis was produced by a tail vein injection of dibutyltin dichloride (DBTC, Aldrich, Milwaukee, Wis., 0.25 cc) dissolved in 100% ethanol at a dose of 8 mg/kg under isofluorane anesthesia (2-3 liters/min, 4.0%/vol until anesthetized, then 2.5%/vol throughout the procedure; Vera-Portocarrero et al., Gastroenterology. 130:2155-2164 (2006)). Control animals were injected with the vehicle solution only (100% ethanol, 0.25 mL).
Referred abdominal hypersensitivity in the pancreatitis model was quantified by measuring the number of withdrawal events evoked by application of a calibrated von Frey filament (determined by either abdominal withdrawal, licking of the abdominal area, or whole body withdrawal). Rats were placed inside Plexiglas boxes on an elevated fine fiberglass screen mesh and acclimated for 30 minutes before testing. […]

[7] = tested on: capsaicin-induced hyperemia in the sciatic nerve; conditions: Zochodne and Ho; cited from earlier work
[8] = RVM microinjection, butyrate rats

## CNS(=O)(=O)Cc1ccc2[nH]cc(CCN(C)C)c2c1 [sumatriptan]
[1]
  antinociceptive efficacy in acetic acid-induced abdominal writhing: has antinociceptive efficacy
[2]
  evoked release of calcitonin gene-related peptide: inhibits
[3]; IP sumatriptan 100, 200, 300 μg/kg
  mechanical threshold of rats injected with sodium butyrate: restored tactile thresholds of butyrate-treated rats in a dose dependent manner; also recorded: increased the mechanical threshold of rats injected with sodium butyrate in a time- and dose-dependent manner
[3]; IP sumatriptan
  behavior of rats previously injected with intracolonic vehicle: did not modify the behavior
[3]; IP, butyrate rats
  time for which systemic sumatriptan was active postinjection: 60 min
  time of peak effect: 40 min
  time point by which the effect dissipated: up to 100 minute
  time to reversal of reduced mechanical threshold after administration: ≤ 20 min
[3]; IP, butyrate rats, lumbar mechanical threshold
  A50 (and 95% CI) dose for IP sumatriptan: 232.6 (182.2-322.8) μg/kg
[3]; RVM microinjection 1, 3, 10 μg, butyrate rats
  lumbar hypersensitivity / lumbar dermatome mechanical threshold after RVM administration: restored tactile thresholds of butyrate-treated rats in a dose dependent manner; also recorded: time- and dose-dependent attenuation of lumbar hypersensitivity
[3]; [8]
  time by which the effects of RVM sumatriptan dissipated: ≤ 100 min
  time for which the effects of RVM sumatriptan endured: approximately 60 minutes
  time of peak effect: 40 min
  time to reversal of reduced mechanical threshold after administration: ≤ 20 min
[3]; RVM microinjection
  behavior of rats previously injected with intracolonic vehicle: did not modify the behavior
[3]; microinjection into the RVM, butyrate rats, lumbar mechanical threshold
  A50 (and 95% CI) dose for RVM sumatriptan: 3.2 (2.0-12.5) μg
[3]; sumatriptan 10 μg into the RVM, butyrate rats, v. RVM saline
  mechanical threshold, single RVM dose: increased the mechanical threshold
[3]; sumatriptan 300 μg/kg IP, butyrate rats, v. saline
  mechanical threshold, single dose of systemic sumatriptan: increased the mechanical threshold
[4]
  reduced lumbar mechanical threshold after IV sumatriptan: did not reverse the reduction in threshold
[5]
  thermal hypersensitivity induced by intraplantar carrageenan: attenuated
[6]; 10 μg IV, DBTC rats, up to 120 minutes postinjection, data not shown
  frequency of abdominal withdrawals after IV sumatriptan: not altered
[6]; IP sumatriptan 100, 200, 300 μg/kg, day 6 after DBTC
  frequency of withdrawals in DBTC-injected rats: reduced abdominal withdrawals in pancreatic rats in a dose-dependent manner; also recorded: reduced the frequency of withdrawals in DBTC-injected rats in a time- and dose-dependent manner
[6]; IP sumatriptan, rats without pancreatitis
  responses to abdominal stimulation in vehicle-injected control rats: did not alter responses to abdominal stimulation
[6]; IP, DBTC rats
  time for which systemic sumatriptan was active postinjection: up to 100 minutes
  time of peak effect: 40 min
  time point at which the effect dissipated: 120 min
  time to attenuation of withdrawals after administration: ≤ 20 min
[6]; IP, day 6 after IV DBTC, frequency of abdominal withdrawals, A50 = dose producing a 50% response
  A50 dose (and 95% confidence interval) for IP sumatriptan: 172.4 (124.5-386.7) μg/kg
[6]; RVM microinjection 1, 3, 10 μg, DBTC rats
  frequency of withdrawals after RVM administration: reduced the number of withdrawals in a dose-dependent manner; also recorded: attenuated the increased frequency of withdrawals
[6]; RVM microinjection, DBTC rats
  time by which the effects of RVM sumatriptan dissipated: ≤ 100 min
  time for which the effects of RVM sumatriptan endured: approximately 60 minutes
  time of peak effect: 40 min
  time to attenuation of withdrawals after administration: ≤ 20 min
[6]; RVM microinjection, rats without pancreatitis
  responses to abdominal stimulation in vehicle-injected rats: did not alter responses to abdominal stimulation
[6]; microinjection into the RVM, DBTC rats, frequency of withdrawals
  A50 dose (and 95% CI) for RVM sumatriptan: 4.3 (3.1-16.2) μg
[6]; sumatriptan 10 μg into the RVM, DBTC rats, v. RVM saline
  frequency of withdrawals, single RVM dose: attenuated the frequency of withdrawals; also recorded: reduced the frequency of withdrawals
[6]; sumatriptan 300 μg/kg IP, DBTC rats, v. saline
  frequency of withdrawals, single dose of systemic sumatriptan: attenuated the frequency of withdrawals; also recorded: reduced the frequency of withdrawals
[7]
  capsaicin-induced hyperemia in the sciatic nerve: inhibits capsaicin-induced hyperemia
